In general, Kd refers to a measure of binding affinity in units of concentration. A lower Kd goes with tighter binding.

We go through 18 compounds from the Kinase Knowledgebase extract (Sharma et al. 2016).

Assay [1] has as its target CDK2 (human) (UniProt P24941). Kind of assay: Enzyme Assay.
Assay [2] addresses CDK2 (human) (UniProt P24941). Kind of assay: Enzyme Assay. This is another data set of the same source.

SMILES strings stand for the structures.

Regarding `NS(=O)(=O)Cc1cccc(Nc2ncnc(N3CCCCC3)n2)c1`, the dissociation constant (Kd) on CDK2 (human) [1] and on CDK2 (human) [2] was more than 10000 nM each time.
`NS(=O)(=O)Cc1cccc(Nc2ncnc(N3Cc4cn[nH]c4C3)n2)c1` came in with a Kd at CDK2 (human) [1] of 100 to 1000 nM.
On CDK2 (human) [1], `CN(C)CCC1CCCCN1c1ncnc(Nc2cccc(CS(N)(=O)=O)c2)n1` (configuration not stated) displayed a Kd of more than 10000 nM.
Consider `NS(=O)(=O)Cc1cccc(Nc2ncnc(N3CCCc4ccccc43)n2)c1`, for which the Kd at CDK2 (human) [2] is 100 to 1000 nM.
Take `NS(=O)(=O)Cc1cccc(Nc2ncnc(N3Cc4ccncc4C3)n2)c1`: the Kd at CDK2 (human) [2] was 100 to 1000 nM.
Turning to `NS(=O)(=O)Cc1cccc(Nc2ncnc(N3CCc4ncccc4C3)n2)c1`, the Kd at CDK2 (human) [1] and at CDK2 (human) [2] was 100 to 1000 nM in each case.
As for `COC[C@H]1CCN1c1ncnc(Nc2cccc(CS(N)(=O)=O)c2)n1`, at CDK2 (human) [2], the Kd is more than 10000 nM.
`NS(=O)(=O)Cc1cccc(Nc2ncnc(N3CCc4ccccc43)n2)c1`: the dissociation constant (Kd) on CDK2 (human) [2] lay within 100 to 1000 nM.
At CDK2 (human) [2], `NS(=O)(=O)Cc1cccc(Nc2ncnc(N3CCC[C@H]3CO)n2)c1` yielded a Kd of more than 10000 nM.
The compound `NS(=O)(=O)Cc1cccc(Nc2ncnc(N3CCC[C@@H]3CO)n2)c1` displayed a Kd on CDK2 (human) [2] of more than 10000 nM.
On to `COC[C@@H]1CCCN1c1ncnc(Nc2cccc(CS(N)(=O)=O)c2)n1`, for which, on CDK2 (human) [2], the dissociation constant (Kd) is more than 10000 nM.
`NS(=O)(=O)Cc1cccc(Nc2ncnc(N3CCC[C@@H]3CN3CCCC3)n2)c1` returned a dissociation constant Kd on CDK2 (human) [2] of more than 10000 nM.
At CDK2 (human) [2], `NS(=O)(=O)Cc1cccc(Nc2ncnc(N3CCC[C@@H]3COCc3ccccc3)n2)c1` came in with a Kd of more than 10000 nM.
With `NS(=O)(=O)Cc1cccc(Nc2ncnc(N3CCCn4nccc43)n2)c1`, the equilibrium dissociation constant (Kd) at CDK2 (human) [1] and on CDK2 (human) [2] was less than 100 nM each time.
`COC[C@H]1CCCCN1c1ncnc(Nc2cccc(CS(N)(=O)=O)c2)n1` had a Kd at CDK2 (human) [2] of more than 10000 nM.
On to `NS(=O)(=O)Cc1cccc(Nc2ncnc(N3CCc4ncsc4C3)n2)c1`, for which the Kd at CDK2 (human) [1] and on CDK2 (human) [2] was less than 100 nM in each case.
On to `NS(=O)(=O)Cc1cccc(Nc2ncnc(N3CCc4nc[nH]c4C3)n2)c1`, for which the Kd at CDK2 (human) [2] was less than 100 nM.
At CDK2 (human) [1], `NS(=O)(=O)Cc1cccc(Nc2ncnc(N3CCCC3c3ccccc3)n2)c1` (configuration not stated) had a dissociation constant (Kd) of more than 10000 nM.
